Experimental data: patent US10344054B2, “Angiotensin-1-receptor antagonists” (Ferring B.V., priority 2016, dated 2019)
Starred links: 1 amine or outer side, 2 acyl side, 3 side chain; linkers in the order of their positions; H or OH if unused. Non-standard residues stand in square brackets, D forms with d. Residues, ends and D or L forms follow the SMILES beside them. X1 = O=C(CN(C[C@H](O)[C@@H](O)[C@H](O)[C@H](O)CO)[*:1])[*:2]; dPhe(2-Ph) = N[C@H](Cc1ccccc1-c1ccccc1)C(=O)O; dPhe(2-Cl) = N[C@H](Cc1ccccc1Cl)C(=O)O; dPhe(2-Me) = Cc1ccccc1C[C@@H](N)C(=O)O; d1Nal = N[C@H](Cc1cccc2ccccc12)C(=O)O; dBta = N[C@H](Cc1csc2ccccc12)C(=O)O; Gly(cPent) = N[C@H](C(=O)O)C1CCCC1; Chg = N[C@H](C(=O)O)C1CCCCC1

Assays:
hAT1R [1] = molecular target: T1, hAT1R (Homo sapiens, UniProt P30556); assay: FLIPR calcium flux assay, Part II: antagonist activity against Angiotensin II; assay type: cell-based; conditions: for Emax: read-out: hAT1R Antagonist Efficacy Antag (%) Ave; for IC50: read-out: hAT1R Antagonist IC50 Ave; as to hAT1R Antagonist Efficacy Antag (%) Ave: Angiotensin II 10 nM final concentration
T1 sequence (P30556 1-359): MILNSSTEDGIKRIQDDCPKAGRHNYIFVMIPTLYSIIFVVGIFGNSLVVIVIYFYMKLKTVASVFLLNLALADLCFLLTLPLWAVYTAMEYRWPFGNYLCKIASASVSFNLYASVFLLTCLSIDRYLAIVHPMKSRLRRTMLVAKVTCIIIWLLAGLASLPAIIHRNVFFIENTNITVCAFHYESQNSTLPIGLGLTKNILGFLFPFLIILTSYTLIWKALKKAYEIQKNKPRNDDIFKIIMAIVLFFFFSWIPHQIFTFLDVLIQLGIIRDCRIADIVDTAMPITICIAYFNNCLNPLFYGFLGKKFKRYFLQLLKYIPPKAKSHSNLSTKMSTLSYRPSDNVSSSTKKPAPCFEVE

hAT1R [2] = molecular target: T1, hAT1R; assay: FLIPR calcium flux assay, Part I: agonist activity; assay type: cell-based; conditions: ChanTest hAT1R stable cells; % MPE, percent of the maximal possible effect; read-out: hAT1R Agonist Efficacy Agonist (%) Ave

Row | Emax (hAT1R [1]) [%] | IC50 (hAT1R [1]) [nM] | Emax (hAT1R [2]) [%] | Structure (SMILES)
1 | 100 | 15.5 | 5 | CNCC(=O)N[C@@H](CCCNC(=N)N)C(=O)N[C@H](C(=O)N[C@@H](Cc1ccc(O)cc1)C(=O)N[C@H](C(=O)N[C@@H](Cc1c[nH]cn1)C(=O)N1CCC[C@H]1C(=O)N[C@H](Cc1cccc2ccccc12)C(=O)O)C1CCCCC1)C(C)C [Compound 34, Sar-Arg-Val-Tyr-Chg-His-Pro-(D-1Nal)-OH] (HELM PEPTIDE1{[Sar].R.V.Y.[O=C([C@@H](N[*:1])C1CCCCC1)[*:2]].H.P.[O=C(O)[C@@H](Cc1cccc2ccccc12)N[*:1]]}$$$$V2.0)
2 | 100 | 14.3 | 6 | CNCC(=O)N[C@@H](CCCNC(=N)N)C(=O)N[C@H](C(=O)N[C@@H](Cc1ccc(O)cc1)C(=O)N[C@H](C(=O)N[C@@H](Cc1c[nH]cn1)C(=O)N1CCC[C@H]1C(=O)N[C@H](Cc1csc2ccccc12)C(=O)O)C1CCCCC1)C(C)C [Compound 35, Sar-Arg-Val-Tyr-Chg-His-Pro-(D-(3-benzothienyl)alanine)-OH] (HELM PEPTIDE1{[Sar].R.V.Y.[O=C([C@@H](N[*:1])C1CCCCC1)[*:2]].H.P.[O=C(O)[C@@H](Cc1csc2ccccc12)N[*:1]]}$$$$V2.0)
3 | 100 | 26 | 13 | CNCC(=O)N[C@@H](CCCNC(=N)N)C(=O)N[C@H](C(=O)N[C@@H](Cc1ccc(O)cc1)C(=O)N[C@H](C(=O)N[C@@H](Cc1c[nH]cn1)C(=O)N1CCC[C@H]1C(=O)N[C@H](Cc1ccccc1-c1ccccc1)C(=O)O)C1CCCCC1)C(C)C [Compound 36, Sar-Arg-Val-Tyr-Chg-His-Pro-(D-Phe(2-Ph))—OH] (HELM PEPTIDE1{[Sar].R.V.Y.[O=C([C@@H](N[*:1])C1CCCCC1)[*:2]].H.P.[O=C(O)[C@@H](Cc1ccccc1-c1ccccc1)N[*:1]]}$$$$V2.0)
4 | 99 | 19.5 | 7 | CC(C)[C@H](NC(=O)[C@H](CCCNC(=N)N)NC(=O)CNC[C@H](O)[C@@H](O)[C@H](O)[C@H](O)CO)C(=O)N[C@@H](Cc1ccc(O)cc1)C(=O)N[C@H](C(=O)N[C@@H](Cc1c[nH]cn1)C(=O)N1CCC[C@H]1C(=O)N[C@H](Cc1cccc2ccccc12)C(=O)O)C(C)C [Compound 37, Glac-Arg-Val-Tyr-Val-His-Pro-(D-1Nal)-OH] (HELM PEPTIDE1{[O=C(CNC[C@H](O)[C@@H](O)[C@H](O)[C@H](O)CO)[*:2]].R.V.Y.V.H.P.[O=C(O)[C@@H](Cc1cccc2ccccc12)N[*:1]]}$$$$V2.0)
5 | 101 | 18.8 | 5 | CC(C)[C@H](NC(=O)[C@H](CCCNC(=N)N)NC(=O)CNC[C@H](O)[C@@H](O)[C@H](O)[C@H](O)CO)C(=O)N[C@@H](Cc1ccc(O)cc1)C(=O)N[C@H](C(=O)N[C@@H](Cc1c[nH]cn1)C(=O)N1CCC[C@H]1C(=O)N[C@H](Cc1csc2ccccc12)C(=O)O)C(C)C [Compound 38, Glac-Arg-Val-Tyr-Val-His-Pro-(D-(3-benzothienyl)alanine)-OH] (HELM PEPTIDE1{[O=C(CNC[C@H](O)[C@@H](O)[C@H](O)[C@H](O)CO)[*:2]].R.V.Y.V.H.P.[O=C(O)[C@@H](Cc1csc2ccccc12)N[*:1]]}$$$$V2.0)
6 | 101 | 26.7 | 8 | CC(C)[C@H](NC(=O)[C@H](CCCNC(=N)N)NC(=O)CNC[C@H](O)[C@@H](O)[C@H](O)[C@H](O)CO)C(=O)N[C@@H](Cc1ccc(O)cc1)C(=O)N[C@H](C(=O)N[C@@H](Cc1c[nH]cn1)C(=O)N1CCC[C@H]1C(=O)N[C@H](Cc1ccccc1-c1ccccc1)C(=O)O)C(C)C [Compound 39, Glac-Arg-Val-Tyr-Val-His-Pro-(D-Phe(2-Ph))—OH] (HELM PEPTIDE1{[O=C(CNC[C@H](O)[C@@H](O)[C@H](O)[C@H](O)CO)[*:2]].R.V.Y.V.H.P.[O=C(O)[C@@H](Cc1ccccc1-c1ccccc1)N[*:1]]}$$$$V2.0)
7 | 101 | 21.9 | 5 | CC(C)[C@H](NC(=O)[C@H](CCCNC(=N)N)NC(=O)CNC[C@H](O)[C@@H](O)[C@H](O)[C@H](O)CO)C(=O)N[C@@H](Cc1ccc(O)cc1)C(=O)N[C@H](C(=O)N[C@@H](Cc1c[nH]cn1)C(=O)N1CCC[C@H]1C(=O)N[C@H](Cc1cccc2ccccc12)C(=O)O)C1CCCCC1 [Compound 40, Glac-Arg-Val-Tyr-Chg-His-Pro-(D-1Nal)-OH] (H-[X1]RVY[Chg]HP[d1Nal]-OH)
8 | 101 | 19.1 | 5 | CC(C)[C@H](NC(=O)[C@H](CCCNC(=N)N)NC(=O)CNC[C@H](O)[C@@H](O)[C@H](O)[C@H](O)CO)C(=O)N[C@@H](Cc1ccc(O)cc1)C(=O)N[C@H](C(=O)N[C@@H](Cc1c[nH]cn1)C(=O)N1CCC[C@H]1C(=O)N[C@H](Cc1csc2ccccc12)C(=O)O)C1CCCCC1 [Compound 41, Glac-Arg-Val-Tyr-Chg-His-Pro-(D-(3-benzothienyl)alanine)-OH] (H-[X1]RVY[Chg]HP[dBta]-OH)
9 | 101 | 28.5 | 10 | CC(C)[C@H](NC(=O)[C@H](CCCNC(=N)N)NC(=O)CNC[C@H](O)[C@@H](O)[C@H](O)[C@H](O)CO)C(=O)N[C@@H](Cc1ccc(O)cc1)C(=O)N[C@H](C(=O)N[C@@H](Cc1c[nH]cn1)C(=O)N1CCC[C@H]1C(=O)N[C@H](Cc1ccccc1-c1ccccc1)C(=O)O)C1CCCCC1 [Compound 42, Glac-Arg-Val-Tyr-Chg-His-Pro-(D-Phe(2-Ph))—OH] (H-[X1]RVY[Chg]HP[dPhe(2-Ph)]-OH)
10 | 100 | 16.6 | 6 | CC(C)[C@H](NC(=O)[C@H](CCCNC(=N)N)NC(=O)CNC[C@H](O)[C@@H](O)[C@H](O)[C@H](O)CO)C(=O)N[C@@H](Cc1ccc(O)cc1)C(=O)N[C@H](C(=O)N[C@@H](Cc1c[nH]cn1)C(=O)N1CCC[C@H]1C(=O)N[C@H](Cc1ccccc1Cl)C(=O)O)C1CCCC1 [Compound 43, Glac-Arg-Val-Tyr-Cpg-His-Pro-(D-Phe(2-Cl))—OH] (H-[X1]RVY[Gly(cPent)]HP[dPhe(2-Cl)]-OH)
11 | 101 | 20.4 | 7 | Cc1ccccc1C[C@@H](NC(=O)[C@@H]1CCCN1C(=O)[C@H](Cc1c[nH]cn1)NC(=O)[C@@H](NC(=O)[C@H](Cc1ccc(O)cc1)NC(=O)[C@@H](NC(=O)[C@H](CCCNC(=N)N)NC(=O)CNC[C@H](O)[C@@H](O)[C@H](O)[C@H](O)CO)C(C)C)C1CCCC1)C(=O)O [Compound 44, Glac-Arg-Val-Tyr-Cpg-His-Pro-(D-Phe(2-Me))—OH] (H-[X1]RVY[Gly(cPent)]HP[dPhe(2-Me)]-OH)
12 | 101 | 18.6 | 6 | Cc1ccccc1C[C@@H](NC(=O)[C@@H]1CCCN1C(=O)[C@H](Cc1c[nH]cn1)NC(=O)[C@@H](NC(=O)[C@H](Cc1ccc(O)cc1)NC(=O)[C@@H](NC(=O)[C@H](CCCNC(=N)N)NC(=O)CNC[C@H](O)[C@@H](O)[C@H](O)[C@H](O)CO)C(C)C)C(C)C)C(=O)O [Compound 45, Glac-Arg-Val-Tyr-Val-His-Pro-(D-Phe(2-Me))—OH] (HELM PEPTIDE1{[O=C(CNC[C@H](O)[C@@H](O)[C@H](O)[C@H](O)CO)[*:2]].R.V.Y.V.H.P.[Cc1ccccc1C[C@@H](N[*:1])C(=O)O]}$$$$V2.0)
13 | 100 | 22.2 | 6 | Cc1ccccc1C[C@@H](NC(=O)[C@@H]1CCCN1C(=O)[C@H](Cc1c[nH]cn1)NC(=O)[C@@H](NC(=O)[C@H](Cc1ccc(O)cc1)NC(=O)[C@@H](NC(=O)[C@H](CCCNC(=N)N)NC(=O)CNC[C@H](O)[C@@H](O)[C@H](O)[C@H](O)CO)C(C)C)C1CCCCC1)C(=O)O [Compound 46, Glac-Arg-Val-Tyr-Chg-His-Pro-(D-Phe(2-Me))—OH] (H-[X1]RVY[Chg]HP[dPhe(2-Me)]-OH)
14 | 99 |  | 42 | CC[C@H](C)[C@H](NC(=O)[C@@H]1CCCN1C(=O)[C@H](Cc1c[nH]cn1)NC(=O)[C@@H](NC(=O)[C@H](Cc1ccc(O)cc1)NC(=O)[C@@H](NC(=O)[C@H](CCCNC(=N)N)NC(=O)CNC)C(C)C)[C@@H](C)CC)C(=O)O [Ref. Cpd. 1, Sar-Arg-Val-Tyr-Ile-His-Pro-Ile-OH, reference compound]
15 | 99 | 14.3 | 25 | CC[C@H](C)[C@H](NC(=O)[C@H](Cc1ccc(O)cc1)NC(=O)[C@@H](NC(=O)[C@H](CCCNC(=N)N)NC(=O)CNC)C(C)C)C(=O)N[C@@H](Cc1c[nH]cn1)C(=O)N1CCC[C@H]1C(=O)N[C@H](Cc1ccccc1)C(=O)O [Ref. Cpd. 2, Sar-Arg-Val-Tyr-Ile-His-Pro-D-Phe-OH, reference compound]
16 | 100 |  | 0.7 | CCCCC(=O)N(Cc1ccc(-c2ccccc2-c2nnn[nH]2)cc1)[C@H](C(=O)O)C(C)C [Ref. Cpd. 4, Valsartan, reference compound]
